From patent US11198713B2, “Agents modulating beta-catenin functions and methods thereof” (FOG PHARMACEUTICALS, INC., priority 2017, dated 2021)
Numbered stars: 1 amine (or outer) side, 2 acyl side, 3 side chain; on linkers, the order of the positions; unused ones are H or OH. Bridge positions count the residues as written; N and C are the ends. Square brackets hold non-standard residues; d marks the D form. Peptide text beside a SMILES is read from it. X16 = C=CCOC(=O)N1CC[C@@](N[*:1])(C(=O)[*:2])C1; X10 = CN(CC=[*:3])C[C@@](C)(N[*:1])C(=O)[*:2]; X14 = O=C([C@@]1(N[*:1])CCN(CC=[*:3])C1)[*:2]; R8 = C=CCCCCCC[C@@](C)(N)C(=O)O; S8 = C=CCCCCCC[C@](C)(N)C(=O)O

molecular target: T1, full-length beta-catenin (Axin site) (Homo sapiens, UniProt P35222); assay: Competition fluorescence polarization assay (Axin site probe); assay type: binding; settings: competition fluorescence polarization, Table 2; read-out: in vitro FP EC50
T1 construct: 15 nM full-length beta-catenin, 20 nM FITC labeled peptide in buffer
T1 sequence (P35222 1-781): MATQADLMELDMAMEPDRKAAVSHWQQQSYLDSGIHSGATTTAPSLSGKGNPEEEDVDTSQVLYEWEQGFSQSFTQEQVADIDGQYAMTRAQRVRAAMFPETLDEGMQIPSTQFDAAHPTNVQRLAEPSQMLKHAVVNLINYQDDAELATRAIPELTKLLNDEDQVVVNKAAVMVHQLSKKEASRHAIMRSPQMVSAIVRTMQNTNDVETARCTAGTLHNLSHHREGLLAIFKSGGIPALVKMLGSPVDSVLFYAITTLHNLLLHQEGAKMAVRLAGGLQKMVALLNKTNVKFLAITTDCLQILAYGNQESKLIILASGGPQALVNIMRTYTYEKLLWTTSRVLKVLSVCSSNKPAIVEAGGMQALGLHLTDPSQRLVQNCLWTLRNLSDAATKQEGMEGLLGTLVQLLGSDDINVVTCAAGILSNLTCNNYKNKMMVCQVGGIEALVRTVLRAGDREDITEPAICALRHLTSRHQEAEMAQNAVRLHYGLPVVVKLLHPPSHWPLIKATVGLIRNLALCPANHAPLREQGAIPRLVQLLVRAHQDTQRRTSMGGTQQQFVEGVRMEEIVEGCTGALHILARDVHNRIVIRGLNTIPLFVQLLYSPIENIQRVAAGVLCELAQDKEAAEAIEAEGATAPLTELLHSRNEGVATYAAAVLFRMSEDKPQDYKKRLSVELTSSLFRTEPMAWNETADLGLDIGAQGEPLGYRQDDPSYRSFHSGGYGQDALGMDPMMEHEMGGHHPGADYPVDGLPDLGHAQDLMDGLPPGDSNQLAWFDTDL
How it was run: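 Competition FP: 15 nM full-length β-catenin pre-incubated 5 min with 20 nM FITC-labelled stapled Axin-site peptide, then titrated peptide added (3-fold series from 5 μM) for 15 min in the dark. Buffer 50 mM Tris pH 8.0, 250 mM NaCl, 2% glycerol, 0.5 mM EDTA; duplicate reads.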

Row | EC50 [nM] | SMILES
1 | < 100 | CC[C@H](C)[C@@H]1NC(=O)[C@@]2(NC(=O)[C@H](C)NC(=O)[C@@H]3CCCN3C(C)=O)CCN(C2)C(=O)OCC=CCCCCCC[C@@](C)(C(=O)N[C@@H](CCCNC(=N)N)C(=O)N[C@H](C(=O)N[C@@H](Cc2c[nH]c3ccccc23)C(N)=O)C(C)C)NC(=O)[C@H](C(C)C)NC(=O)[C@H](Cc2c[nH]cn2)NC(=O)[C@H](C)NC(=O)[C@H](CC(=O)O)NC(=O)[C@H](CC(C)C)NC1=O [FP0005c, Ac-P-A-MC-I-L-D-A-H-V-S8-R-V-W-NH2]
2 | < 100 | CC[C@H](C)[C@@H]1NC(=O)[C@@]2(NC(=O)[C@H](C)NC(=O)[C@@H]3CCCN3C(C)=O)CCN(CC=CCCCCCC[C@@](C)(C(=O)N[C@@H](CCCNC(=N)N)C(=O)N[C@H](C(=O)N[C@@H](Cc3c[nH]c4ccccc34)C(N)=O)C(C)C)NC(=O)[C@H](C(C)C)NC(=O)[C@H](Cc3c[nH]cn3)NC(=O)[C@H](C)NC(=O)[C@H](CC(=O)O)NC(=O)[C@H](CC(C)C)NC1=O)C2 [FP0006a, Ac-P-A-MC-I-L-D-A-H-V-S8-R-V-W-NH2] (Ac-PA[X14]ILDAHV[S8]RVW-NH2; staple 3-10)
3 | < 100 | C=CCCCCCC[C@@](C)(NC(=O)[C@H](C)NC(C)=O)C(=O)N[C@H](C(=O)N[C@@H](CC(C)C)C(=O)N[C@@H](CC(=O)O)C(=O)N[C@@H](C)C(=O)N[C@@H](Cc1c[nH]cn1)C(=O)N[C@H](C(=O)N[C@@]1(C(=O)N[C@@H](CCCNC(=N)N)C(=O)N[C@H](C(=O)N[C@@H](Cc2c[nH]c3ccccc23)C(N)=O)C(C)C)CCN(C(=O)OCC=C)C1)[C@@H](C)CC)[C@@H](C)CC [FP0217u, Ac-A-R8-I-L-D-A-H-I-MB-R-V-W-NH2] (Ac-A[R8]ILDAHI[X16]RVW-NH2)
4 | 100 to 500 | CC[C@H](C)[C@@H]1NC(=O)[C@H](Cc2c[nH]cn2)NC(=O)[C@H](C)NC(=O)[C@H](CC(N)=O)NC(=O)[C@H](CC(C)C)NC(=O)[C@H]([C@@H](C)CC)NC(=O)[C@](C)(NC(=O)[C@H](C)NC(C)=O)CCCCCCC=CCOC(=O)N2CC[C@@](C(=O)N[C@@H](CCCNC(=N)N)C(=O)N[C@H](C(=O)N[C@@H](Cc3c[nH]c4ccccc34)C(N)=O)C(C)C)(C2)NC1=O [FP0218c, Ac-A-R8-I-L-N-A-H-I-MB-R-V-W-NH2]
5 | 100 to 500 | CC[C@H](C)[C@@H]1NC(=O)[C@H](Cc2c[nH]cn2)NC(=O)[C@H](C)NC(=O)[C@H]([C@@H](C)O)NC(=O)[C@H](CC(C)C)NC(=O)[C@H]([C@@H](C)CC)NC(=O)[C@](C)(NC(=O)[C@H](C)NC(C)=O)CCCCCCC=CCOC(=O)N2CC[C@@](C(=O)N[C@@H](CCCNC(=N)N)C(=O)N[C@H](C(=O)N[C@@H](Cc3c[nH]c4ccccc34)C(N)=O)C(C)C)(C2)NC1=O [FP0219c, Ac-A-R8-I-L-T-A-H-I-MB-R-V-W-NH2]
6 | 100 to 500 | CC[C@H](C)[C@@H]1NC(=O)[C@H](Cc2c[nH]cn2)NC(=O)[C@H](C)NC(=O)[C@H](CC(=O)O)NC(=O)[C@H](CC(C)C)NC(=O)[C@H]([C@@H](C)CC)NC(=O)[C@](C)(NC(=O)[C@H](C)NC(C)=O)CN(C)CC=CCCCCCC[C@@](C)(C(=O)N[C@@H](CCCNC(=N)N)C(=O)N[C@H](C(=O)N[C@@H](Cc2c[nH]c3ccccc23)C(N)=O)C(C)C)NC1=O [FP0335a, Ac-A-ME-I-L-D-A-H-I-S8-R-V-W-NH2] (Ac-A[X10]ILDAHI[S8]RVW-NH2; staple 2-9)

same assay, conditions: competition with FITC labeled Axin-site probe, 15 nM full-length beta-catenin; read-out: FP EC50

Row | EC50 [nM] | SMILES
7 | > 5000 | CC[C@H](C)[C@@H]1NC(=O)[C@]2(NC(=O)[C@H](CCC(N)=O)NC(=O)[C@@H]3CCCN3C(C)=O)CCN(CC=CCCC[C@@](C)(C(=O)N[C@@H](Cc3c[nH]cn3)C(=O)N[C@H](C(=O)N[C@@H](CCCNC(=N)N)C(=O)N[C@@H](CCCNC(=N)N)C(=O)N[C@H](C(=O)N[C@@H](Cc3c[nH]c4ccccc34)C(=O)N[C@@H](CCCNC(=N)N)C(N)=O)C(C)C)C(C)C)NC(=O)[C@H](CC(=O)O)NC(=O)[C@H](CC(C)C)NC1=O)C2 (single isomer, unassigned) [FP-0751, Ac-P-Q-PS-I-L-D-S5-H-V-R-R-V-W-R-NH2]
8 | > 5000 | CC[C@H](C)[C@@H]1NC(=O)[C@]2(NC(=O)[C@H](CCC(N)=O)NC(=O)[C@@H]3CCCN3C(C)=O)CCN(CC=CCCCCC[C@@](C)(C(=O)N[C@@H](Cc3c[nH]cn3)C(=O)N[C@H](C(=O)N[C@@H](CCCNC(=N)N)C(=O)N[C@@H](CCCNC(=N)N)C(=O)N[C@H](C(=O)N[C@@H](Cc3c[nH]c4ccccc34)C(=O)N[C@@H](CCCNC(=N)N)C(N)=O)C(C)C)C(C)C)NC(=O)[C@H](CC(=O)O)NC(=O)[C@H](CC(C)C)NC1=O)C2 (single isomer, unassigned) [FP-0753, Ac-P-Q-PS-I-L-D-S7-H-V-R-R-V-W-R-NH2]
9 | > 5000 | CC[C@H](C)[C@@H]1NC(=O)[C@](C)(NC(=O)[C@H](CCC(N)=O)NC(=O)[C@@H]2CCCN2C(C)=O)CCCC=CCN2CC[C@@](C(=O)N[C@@H](Cc3c[nH]cn3)C(=O)N[C@H](C(=O)N[C@@H](CCCNC(=N)N)C(=O)N[C@@H](CCCNC(=N)N)C(=O)N[C@H](C(=O)N[C@@H](Cc3c[nH]c4ccccc34)C(=O)N[C@@H](CCCNC(=N)N)C(N)=O)C(C)C)C(C)C)(C2)NC(=O)[C@H](CC(=O)O)NC(=O)[C@H](CC(C)C)NC1=O (single isomer, unassigned) [FP-0758, Ac-P-Q-R5-I-L-D-PS-H-V-R-R-V-W-R-NH2]
10 | 110 | CC[C@H](C)[C@@H]1NC(=O)[C@](C)(NC(=O)[C@H](CCC(N)=O)NC(=O)[C@@H]2CCCN2C(C)=O)CCCCC=CCOC(=O)N2CC[C@](C(=O)N[C@@H](Cc3c[nH]cn3)C(=O)N[C@H](C(=O)N[C@@H](CCCNC(=N)N)C(=O)N[C@@H](CCCNC(=N)N)C(=O)N[C@H](C(=O)N[C@@H](Cc3c[nH]c4ccccc34)C(=O)N[C@@H](CCCNC(=N)N)C(N)=O)C(C)C)C(C)C)(C2)NC(=O)[C@H](CC(=O)O)NC(=O)[C@H](CC(C)C)NC1=O (single isomer, unassigned) [FP-0767c, Ac-P-Q-R6-I-L-D-PR-H-V-R-R-V-W-R-NH2]
11 | > 5000 | CC[C@H](C)[C@@H]1NC(=O)[C@](C)(NC(=O)[C@H](CCC(N)=O)NC(=O)[C@@H]2CCCN2C(C)=O)CCCCCC=CCN2CC[C@](C(=O)N[C@@H](Cc3c[nH]cn3)C(=O)N[C@H](C(=O)N[C@@H](CCCNC(=N)N)C(=O)N[C@@H](CCCNC(=N)N)C(=O)N[C@H](C(=O)N[C@@H](Cc3c[nH]c4ccccc34)C(=O)N[C@@H](CCCNC(=N)N)C(N)=O)C(C)C)C(C)C)(C2)NC(=O)[C@H](CC(=O)O)NC(=O)[C@H](CC(C)C)NC1=O (single isomer, unassigned) [FP-0768, Ac-P-Q-R7-I-L-D-PR-H-V-R-R-V-W-R-NH2]
12 | 580 | CC[C@H](C)[C@@H]1NC(=O)[C@](C)(NC(=O)[C@H](CCC(N)=O)NC(=O)[C@@H]2CCCN2C(C)=O)CCCC=CCN(C)CC[C@](C)(C(=O)N[C@@H](Cc2c[nH]cn2)C(=O)N[C@H](C(=O)N[C@@H](CCCNC(=N)N)C(=O)N[C@@H](CCCNC(=N)N)C(=O)N[C@H](C(=O)N[C@@H](Cc2c[nH]c3ccccc23)C(=O)N[C@@H](CCCNC(=N)N)C(N)=O)C(C)C)C(C)C)NC(=O)[C@H](CC(=O)O)NC(=O)[C@H](CC(C)C)NC1=O (single isomer, unassigned) [FP-0776, Ac-P-Q-R5-I-L-D-RdN-H-V-R-R-V-W-R-NH2]
13 | 1300 | CC[C@H](C)[C@@H]1NC(=O)[C@@](C)(NC(=O)[C@H](CCC(N)=O)NC(=O)[C@@H]2CCCN2C(C)=O)CCN(C)C(=O)OCC=CCCC[C@@](C)(C(=O)N[C@@H](Cc2c[nH]cn2)C(=O)N[C@H](C(=O)N[C@@H](CCCNC(=N)N)C(=O)N[C@@H](CCCNC(=N)N)C(=O)N[C@H](C(=O)N[C@@H](Cc2c[nH]c3ccccc23)C(=O)N[C@@H](CCCNC(=N)N)C(N)=O)C(C)C)C(C)C)NC(=O)[C@H](CC(=O)O)NC(=O)[C@H](CC(C)C)NC1=O (single isomer, unassigned) [FP-0779c, Ac-P-Q-SdN-I-L-D-S5-H-V-R-R-V-W-R-NH2]
14 | 1400 | CC[C@H](C)[C@@H]1NC(=O)[C@](C)(NC(=O)[C@H](CCC(N)=O)NC(=O)[C@@H]2CCCN2C(C)=O)CCCN(C)CC=CCCC[C@](C)(C(=O)N[C@@H](Cc2c[nH]cn2)C(=O)N[C@H](C(=O)N[C@@H](CCCNC(=N)N)C(=O)N[C@@H](CCCNC(=N)N)C(=O)N[C@H](C(=O)N[C@@H](Cc2c[nH]c3ccccc23)C(=O)N[C@@H](CCCNC(=N)N)C(N)=O)C(C)C)C(C)C)NC(=O)[C@H](CC(=O)O)NC(=O)[C@H](CC(C)C)NC1=O (single isomer, unassigned) [FP-0783, Ac-P-Q-ReN-I-L-D-R5-H-V-R-R-V-W-R-NH2]
15 | ~100 | CC[C@H](C)[C@@H]1NC(=O)[C@@](C)(NC(=O)[C@H](CCC(N)=O)NC(=O)[C@@H]2CCCN2C(C)=O)CCCC=CCCC[C@@](C)(C(=O)N[C@@H](Cc2c[nH]cn2)C(=O)N[C@H](C(=O)N[C@@H](CCCNC(=N)N)C(=O)N[C@@H](CCCNC(=N)N)C(=O)N[C@H](C(=O)N[C@@H](Cc2c[nH]c3ccccc23)C(=O)N[C@@H](CCCNC(=N)N)C(N)=O)C(C)C)C(C)C)NC(=O)[C@H](CC(=O)O)NC(=O)[C@H](CC(C)C)NC1=O (single isomer, unassigned) [FP-0787]
